{
  "source": "patent US10321682B2",
  "about": "“Pesticidal aryl pyrrole nitrile compound, preparation method for same, uses thereof, agricultural pesticide, and pest control method” (HENAN GOODDAYS BIOLOGY DEVELOPMENT CO., LTD., priority 2016, dated 2019)",
  "key": {"[1]": {"experiment": "Toxicity to Japanese carp", "settings": "in vivo"}, "[2]": {"experiment": "Acute percutaneous toxicity in rats", "settings": "both sexes, rat, in vivo, topical; both female rats and male rats"}, "[3]": {"experiment": "Acute oral toxicity in rats", "settings": "both sexes, rat, in vivo, both female rats and male rats"}, "[4]": {"system": "rats", "settings": "cited from earlier work"}},
  "note": "Read-outs that look alike come from different tables or passages of the source.",
  "data": [
    {"smiles": "N#Cc1c(Br)c(C(F)(F)F)n(Cc2cnc(Cl)s2)c1-c1ccc(Cl)cc1", "note": "[4-bromo-2-(4-chlorophenyl)-1-(2-chloro-5-thiazolylmethyl)-5-trifluoromethylpyrrole-3-carbonitrile]", "values": [
      {"measurement": "LC50", "setting": "[1]", "value": 2.5, "unit": "µg/mL"},
      {"measurement": "LD50", "setting": "[2]", "value": "> 2000", "unit": "mg/kg"},
      {"measurement": "LD50", "setting": "[3]", "value": "> 5000", "unit": "mg/kg"}
    ]},
    {"smiles": "CCOCn1c(-c2ccc(Cl)cc2)c(C#N)c(Br)c1C(F)(F)F", "note": "[Chujin, 4-bromo-2-(4-chlorophenyl)-1-ethoxymethyl-5-trifluoromethylpyrrole-3-carbonitrile]", "values": [
      {"measurement": "acute oral LD50", "setting": "[4]; female rats", "value": 459, "unit": "mg/kg"},
      {"measurement": "acute oral LD50", "setting": "[4]; male rats", "value": 223, "unit": "mg/kg"}
    ]}
  ]
}
